From US4008219A, “4-Benzazonine derivatives and process for preparation thereof” (Nihon Iyakuhin Kogyo Co., Ltd., priority 1973, dated 1977)
Counter-ions that a name gives are not always drawn.

Columns and labels:
[1] = Hygroscopicity of the salt; format: physicochemical; settings: crystalline salt, cis-form
guinea pigs [2] = experiment: Antitussive effect, Chemical Stimulus Method (SO2 gas); format: in vivo, guinea pig; settings: guinea pigs, SO2 gas; for ED50: Cavia porcellus, sc, 0.5 h, hypodermic injection, 1 minute, 30 minutes after injection, read-out: ED50, Chemical Stimulus Method (antitussive); for Effect Ratio to Codeine Phosphate, Chemical Stimulus Method: codeine phosphate = 100
Description: (§1) Results of comparative tests where the medicinal effects of compounds of this invention were compared with those of known compounds such as pentazocine and codeine phosphate by employing mice and guinea pigs as the test animals are shown in the following Tables I and II.
(§2) Comparison of Antitusive Effects
2) Takagi et al modification [Journal of Pharmaceutical Society of Japan,
80, 1497 (1960)] of the test method of H. Friebel, C. Reichle and A. V.
Gravenitz [Archiv Fur experimentalle Phathologie und Pharmakologie,
Naunyn-Schmiede-berg's, 224,384 (1955)], in which the test compound was
hypodermically injected into guinea pigs, 30 minutes after the injection
the quinea pigs were put into a desiccator filled with SO2 gas and
kept in the desiccator for 1 minute, then the guinea pigs were put into
another vessel and the degree of coughing was examined.

guinea pigs [3] = experiment: Antitussive effect, Mechanical Stimulus Method; format: in vivo, guinea pig; settings: for ED50: Cavia porcellus, swine hairs inserted into the trachea; for Effect Ratio to Codeine Phosphate, Mechanical Stimulus Method: codeine phosphate = 100
Description: as §1, §2
Mechanical Stimulus Method^1)
1) Takagi et al modification [Journal of the Pharmaceutical Society of
Japan, 80, 1497 (1960)] of the test method of H. Konzett and E. Rothlin
[Experientia, 10, 472 (1954)], in which urethane was hypodermically
injected (15 mg/Kg) into guinea pigs and swine hairs were inserted into
the trachea to impart stimulus.

Acute Toxicity = settings: in vivo; mouse, intravenous injection
Protocol: (§3) Tested Animal: mice of the ddN-series, .male., 20 ± 1 experimental
(§4) Conditions: temperature of 24 ± 1° C., relative humidity of 65

mice of the ddN-series [4] = experiment: Analgesic test, Heat Stimulus Method (Hot Plate Method); format: in vivo, mouse; design: reference not given here; settings: hypodermic injection, comparative value, scale not given
Protocol: as §1
Heat Stimulus Method^2)
as §3, §4
^2) G. Woolfe and A. D. Mac Donald; Journal of Pharmacology and […]

mice of the ddN-series [5] = experiment: Analgesic test, Pressure Stimulus Method; format: in vivo, mouse; settings: hypodermic injection, comparative value, pentazocine 1.0
Protocol: as §1
Pressure Stimulus Method^3)
R (hypodermic injection)
as §3, §4
^3) A. F. Green, P. A. Yound and E. I. Godfrey; British Journal of
Pharmacology and Chemotherapy, 6, 572 (1951)

mice of the ddN-series [6] = experiment: Analgesic test, Chemical Stimulus Method (Writhing Method); format: in vivo, mouse; design: scale not given here; settings: interabdominal injection, comparative value, scale not given
Protocol: as §1
Chemical Stimulus Method^1)
(interabdominal injection)
as §3, §4
^1) R. Koster, M. Anderson and E. J. De Beer, Federation Proceedings, […]

Structure (SMILES)	LD50 (Acute Toxicity)	Heat Stimulus Method (Hot Plate Method) (mice of the ddN-series [4])	Pressure Stimulus Method (mice of the ddN-series [5])	Chemical Stimulus Method (Writhing Method) (mice of the ddN-series [6])	other results
CC1C2CN(C)CCC1(C)c1ccccc1C2O (stereo not drawn) [Example 15]					hygroscopicity [1]: hygroscopic
CN1CCC2CC(C1)C(O)c1ccccc12 (stereo not drawn) [R=H, R1=H, R2=H, CH2R3=CH3, R4=OH, 4-methyl-2,3,4,5,6,7-hexahydro-1,6-methano-1H-4-benzazonin-7-ol]					ED50 (guinea pigs [2]): 6.58 mg/kg; Effect Ratio to Codeine Phosphate, Chemical Stimulus Method (guinea pigs [2]): 201.4; ED50 (guinea pigs [3]): 9.21 mg/kg; Effect Ratio to Codeine Phosphate, Mechanical Stimulus Method (guinea pigs [3]): 157.1
COc1ccc2c(c1)C1(C)CCN(C)CC(C1)C2O (stereo not drawn) [R=CH3O, R1=CH3, R2=H, CH2R3=CH3, R4=OH, 1,4-dimethyl-10-methoxy-2,3,4,5,6,7-hexahydro-1,6-methano-1H-4-benzazonin-7-ol]	72 mg/kg	5.0	1.2	1.5	ED50 (guinea pigs [2]): 6.06 mg/kg; Effect Ratio to Codeine Phosphate, Chemical Stimulus Method (guinea pigs [2]): 218.8; ED50 (guinea pigs [3]): 13.7 mg/kg; Effect Ratio to Codeine Phosphate, Mechanical Stimulus Method (guinea pigs [3]): 105.5
CC(C)=CCN1CCC2(C)c3cc(O)ccc3CC1C2C (stereo not drawn) [pentazocine, 1,2,3,4,5,6-hexahydro-3-(3-methyl-2-butenyl)-6, 11-dimethyl-8-hydroxy-2,6-methano-3-benzazonine, reference compound]	25 mg/kg		1.0		
CCN1CCC2(C)CC(Cc3ccc(OC)cc32)C1 (stereo not drawn) [R=CH3O, R1=CH3, R2=H, CH2R3=CH2CH3, R4=H]	120 mg/kg	2.0		0.8	
OC1c2ccccc2C2CCN(CCc3ccccc3)CC1C2 (stereo not drawn) [Example 59, hydrobromide]					solubility in water (Solubility in water): water-soluble
CC(C)CCN1CCC2(C)CC(Cc3ccc(O)cc32)C1 (stereo not drawn) [R=HO, R1=CH3, R2=H, CH2R3=drawing 45, R4=H]	40 mg/kg	1.5		1.0	
CC(C)=CCN1CCC2(C)CC(Cc3ccc(O)cc32)C1 (stereo not drawn) [R=HO, R1=CH3, R2=H, CH2R3=drawing 43, R4=H]	40 mg/kg	1.5		1.0	
CC(C)=CCN1CCC2CC(C1)C(O)c1ccccc12 (stereo not drawn) [R=H, R1=H, R2=H, CH2R3=drawing 36, R4=OH]	60 mg/kg	1.2	1.4	1.2	
CCN1CCC2(C)CC(Cc3ccc(O)cc32)C1 (stereo not drawn) [R=HO, R1=CH3, R2=H, CH2R3=CH2CH3, R4=H]	80 mg/kg	2.0		1.5	
CCC12CCN(C)CC(Cc3ccc(O)cc31)C2C (stereo not drawn) [Example 22]					hygroscopicity [1]: hygroscopic
CCC12CCN(C)CC(C(O)c3ccc(OC)cc31)C2C (stereo not drawn) [Example 10, 4,12-dimethyl-1-ethyl-10-methoxy-2,3,4,5,6,7-hexahydro-1,6-methano-1H-4-benzazonin-7-ol]					hygroscopicity [1]: very hygroscopic
CC1C2CN(C)CCC1(C)c1ccccc1C2O (stereo not drawn) [R=H, R1=CH3, R2=CH3, CH2R3=CH3, R4=OH]	30 mg/kg	2.0	1.5	1.6	
CC1C2Cc3ccc(O)cc3C1(C)CCN(C)C2 (stereo not drawn) [Example 20]					hygroscopicity [1]: hygroscopic
OC1c2ccccc2C2CCN(CCc3ccccc3)CC1C2 (stereo not drawn) [R=H, R1=H, R2=H, CH2R3=drawing 37, R4=OH]	45 mg/kg	4.5	2.0	1.8	
C=CCN1CCC2(C)CC(C1)C(O)c1ccc(OC)cc12 (stereo not drawn)	61 mg/kg	1.6		1.4	
c1ccc(CCN2CCC3CC(Cc4ccccc43)C2)cc1 (stereo not drawn) [R=H, R1=H, R2=H, CH2R3=drawing 41, R4=H]	35 mg/kg	5.0	2.0	0.8	
CC1C2Cc3ccc(O)cc3C1(C)CCN(C)C2 (stereo not drawn) [Example 90]					hygroscopicity [1]: being hygro-
